{"source": "paper PMC9369311", "about": "“Examination of Intracellular GPCR-Mediated Signaling with High Temporal Resolution” (International Journal of Molecular Sciences, 2022)", "target": "T1, DmOctβ1 receptor (Drosophila melanogaster, UniProt Q9VCZ3)", "T1 construct": "expressed in transfected cells; host or cells: flpTM cells (HEK293 flpIn, Invitrogen #750-07, carrying the CNGA2 variant)", "T1 sequence (Q9VCZ3 1-508)": "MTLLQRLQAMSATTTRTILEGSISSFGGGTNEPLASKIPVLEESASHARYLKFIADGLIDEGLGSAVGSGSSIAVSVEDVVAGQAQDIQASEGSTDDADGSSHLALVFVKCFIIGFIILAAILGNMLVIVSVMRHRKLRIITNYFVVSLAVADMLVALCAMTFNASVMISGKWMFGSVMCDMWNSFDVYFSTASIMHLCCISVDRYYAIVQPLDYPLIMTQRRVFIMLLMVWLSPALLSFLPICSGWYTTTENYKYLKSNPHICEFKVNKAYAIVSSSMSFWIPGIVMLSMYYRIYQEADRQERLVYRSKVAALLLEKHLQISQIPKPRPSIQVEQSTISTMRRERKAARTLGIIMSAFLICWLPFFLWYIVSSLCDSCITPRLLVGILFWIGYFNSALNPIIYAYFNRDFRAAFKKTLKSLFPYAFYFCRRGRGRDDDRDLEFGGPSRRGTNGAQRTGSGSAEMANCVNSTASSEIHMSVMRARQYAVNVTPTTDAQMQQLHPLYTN", "assay": "Stopped-flow Ca2+ fluorescence measurements, flpTM-DmOctβ1 cells, octopamine", "assay_type": "cell-based", "protocol": "In successive stopped-flow measurements, the flpTM-DmOctβ1 cells loaded with Fluo-4 were stimulated with increasing octopamine (1 nM–3 µM) and NKH477 (100 nM–300 µM) concentrations. The fluorescence intensities were monitored over 80 s and 100 s, respectively (Figure 4A1,B1). The fluorescence intensities increased and finally reached a plateau with increasing concentrations of both of the ligands. However, the saturating ligand concentrations differed strongly between octopamine (≥300 nM) and NKH477 (≥100 µM). By plotting the maximal changes in fluorescence (ΔF/F0) against ligand concentrations, concentration–response curves were generated and EC50 values were calculated (Figure 4C). […] As observed for the DmOctα1B cell lines (see Figure 3D), the signal response times of flpTM-DmOctβ1 cells were faster at higher ligand concentrations (Figure 4A2,B2). In Figure 4D, the time until the signals were detected (for details, see Materials and Methods, Section 4.4) are plotted for the ligand concentrations covering the calculated EC50 value (dynamic range) and for saturating concentrations (saturating range). The signal response times of the flpTM-DmOctβ1 cells for octopamine were in the range of 30 s (dynamic range) and 6 s (saturating range), whereas the signal detection upon NKH477 application was observed after 50 s (dynamic range) and 16 s (saturating range). The signal response times were about three- to five-fold faster at the saturating concentrations in comparison to the octopamine and NKH477 concentrations in the dynamic range.\nAs described for the Fluo-4-loaded flpTM-DmOctβ1 cells, similar experiments were performed with the flpTM-DmOctβ1-GCaMP3.0 cells (Figure 5). The cells were successively mixed with increasing concentrations of octopamine (30 pM–100 nM) or NKH477 (30 nM–100 µM) and the fluorescence intensities were recorded over 100 s. For both of the ligands, increasing ligand concentrations led to an increase in the fluorescence emission finally reaching a plateau (Figure 5A1,B1).\nFor the stopped-flow measurements, the SFM-400 system (BioLogic, Münster, Germany) was used. The main component of the stopped-flow setup is the SFM-400 module with four 10 mL syringes, which can be filled by external valves. The syringes are driven by step motors. The reactants can be mixed in three individual mixing chambers (M1–M3). The volume between M1 and M2 is 21 µL, and 31 µL between M2 and M3. The observation chamber is a quartz cuvette (FC-15) with a reaction volume of 31 µL, installed behind M3. To avoid fluctuations of the reaction mixture in the cuvette, which might lead to noisy and inconsistent signals, a hard stop valve located behind the cuvette can be closed after injection of the reactants. The stopped-flow module is controlled via a MPS-60 control unit (BioLogic). Data acquisition and operation of the system were performed with the Bio-Kine 32 v4.74 software (BioLogic).\nThe reactions in the cuvette were analyzed via the changes in the fluorescence. A 150 W Xe/Hg-lamp (ALX-220; BioLogic) was used as a light source for the excitation. The excitation light was guided via a light guide towards the cuvette. To determine the wavelength of the excitation light, a 482 nm bandpass filter (482/35 nm BrightLine® single-band bandpass filter; Semrock, Rochester, NY, USA) was used. A heat protection filter (3 mm; KG1, Schott; Mainz, Germany) was placed between the Xe/Hg-lamp and the excitation filter. The fluorescence was detected with a photomultiplier (PMS 200, BioLogic) installed rectangularly to the light path of the excitation light. Between the cuvette and the photomultiplier tube a 535 nm bandpass emission filter (XF3007 535AF35; Horiba, Oberursel, Germany) was placed to select for the emission light being detected by the photomultiplier. A voltage of 600 V was applied to the photomultiplier.\nThe fluorescence measurements were performed either directly with the cells expressing GCaMP3.0 or after loading the cells with Fluo-4-AM. […]", "note": "Several values for one entry are separate records, joined by “and”; a condition that tells them apart may be missing. Equal values may be shown once."}
{"smiles": "NCC(O)c1ccc(O)cc1", "note": "(stereo not drawn) [octopamine]", "values": [{"measurement": "Signal Response Time", "setting": "dynamic range (concentrations around EC50), flpTM-DmOctβ1 cells loaded with Fluo-4", "value": "~30", "unit": "s"}, {"measurement": "Signal Response Time", "setting": "saturating concentration, flpTM-DmOctβ1-GCaMP3.0 cells, mean ± SEM", "value": "~6", "unit": "s"}, {"measurement": "Signal Response Time", "setting": "saturating concentration, flpTM-DmOctβ1-GCaMP3.0 cells, mean ± SEM, listed as Octopamine", "value": "6.00 ± 0.20", "unit": "s"}, {"measurement": "Signal Response Time", "setting": "saturating concentration, flpTM-DmOctβ1 cells loaded with Fluo-4, mean ± SEM", "value": "~6", "unit": "s"}, {"measurement": "Signal Response Time", "setting": "saturating concentration, flpTM-DmOctβ1 cells loaded with Fluo-4, mean ± SEM, listed as Octopamine", "value": "6.00 ± 0.13", "unit": "s"}, {"measurement": "Signal Response Time", "setting": "saturating ligand concentration, flpTM-DmOctβ1 cell lines, Fluo-4 and GCaMP3.0", "value": "6 s and ≈ 6 s"}, {"measurement": "EC50", "setting": "stopped-flow, flpTM-DmOctβ1-GCaMP3.0 cells, mean ± SEM", "value": "~1.8 nM and 1.78 nM and 1.8 nM"}, {"measurement": "saturating ligand concentration", "setting": "stopped-flow, flpTM-DmOctβ1 cells loaded with Fluo-4", "value": "≥ 300", "unit": "nM"}, {"measurement": "EC50", "setting": "stopped-flow, flpTM-DmOctβ1 cells loaded with Fluo-4, mean ± SEM", "value": "~22 nM and 22 nM"}]}
